Reference: the supplement of paper PMC6045584
± gives the standard deviation of the averaged measurements.

Key:
ERLOTINIB = compound: C#Cc1cccc(Nc2ncnc3cc(OCCOC)c(OCCOC)cc23)c1 [ERLOTINIB]; assay: surviving fraction relative to DMSO-only wells; higher = less growth inhibition; settings: exposure time: 5 days
Procedure, shortened: (§1)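 Lines were retained only if, across three screens, replicate Pearson r was >0.7 and median Z' was >0.3. Viability was measured as CellTiter-Glo luminescence and reported as surviving fraction relative to the median of DMSO-only wells. Readings followed 10 minutes at room temperature, after log-phase tumour cells seeded at 250–500 per well in 384-well plates had been exposed, from 24 hours after seeding, continuously for five days to inhibitors at 0.5, 1, 5, 10, 50, 100, 500 and 1000 nM.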

[1] = compound: Cc1nc(Nc2n[nH]c3c2CN(C(=O)N[C@H](CN(C)C)c2ccccc2)C3(C)C)c2sccc2n1; assay: as above; settings: exposure time: 5 days
Procedure, shortened: as §1

Test System | surviving fraction (ERLOTINIB; 0.5 nM) | surviving fraction (ERLOTINIB; 1 nM) | surviving fraction (ERLOTINIB; 5 nM) | surviving fraction (ERLOTINIB; 10 nM) | surviving fraction (ERLOTINIB; 50 nM) | surviving fraction (ERLOTINIB; 100 nM) | surviving fraction (ERLOTINIB; 500 nM) | surviving fraction (ERLOTINIB; 1000 nM) | surviving fraction ([1]; 0.5 nM) | surviving fraction ([1]; 1 nM) | surviving fraction ([1]; 5 nM) | surviving fraction ([1]; 10 nM) | surviving fraction ([1]; 50 nM) | surviving fraction ([1]; 100 nM) | surviving fraction ([1]; 500 nM) | surviving fraction ([1]; 1000 nM)
22RV1 PROSTATE | 1.1 ± 0.11 | 1.01 ± 0.12 | 1.03 ± 0.048 | 1 ± 0.028 | 1.04 ± 0.072 | 0.956 ± 0.17 | 0.991 ± 0.18 | 1.08 ± 0.021 | 0.963 ± 0.14 | 0.783 ± 0.078 | 0.334 ± 0.035 | 0.321 ± 0.051 | 0.348 ± 0.018 | 0.313 ± 0.058 | 0.291 ± 0.058 | 0.27 ± 0.025
93VU HEADNECK | 1.1 ± 0.058 | 1.04 ± 0.095 | 1.1 ± 0.067 | 1.04 ± 0.12 | 1.06 ± 0.051 | 0.97 ± 0.15 | 0.514 ± 0.066 | 0.416 ± 0.034 | 1.01 ± 0.12 | 0.883 ± 0.045 | 0.39 ± 0.012 | 0.298 ± 0.044 | 0.24 ± 0.018 | 0.195 ± 0.0078 | 0.0973 ± 0.013 | 0.0723 ± 0.0095
143B BONE |  | 1.11 ± 0.067 | 1.13 ± 0.067 |  | 1.15 ± 0.053 | 1.17 ± 0.067 | 1.19 ± 0.14 | 1.15 ± 0.16 | 0.96 ± 0.021 | 0.969 ± 0.015 | 0.726 ± 0.032 | 0.494 ± 0.011 | 0.293 ± 0.033 | 0.259 ± 0.016 | 0.158 ± 0.0042 | 0.0825 ± 0.0035
A549 LUNG |  | 1.06 ± 0.026 | 1.06 ± 0.027 | 1.056 ± 0.0021 | 1.05 ± 0.022 |  |  | 1.03 ± 0.029 | 1.03 ± 0.051 | 0.952 ± 0.064 | 0.988 ± 0.064 | 0.578 ± 0.021 | 0.38 ± 0.033 | 0.311 ± 0.022 | 0.2537 ± 0.0015 | 0.208 ± 0.011
ASKA SYNOVIAL | 1.12 ± 0.047 | 1.15 ± 0.07 | 1.18 ± 0.06 | 1.19 ± 0.036 |  | 1.15 ± 0.067 | 1.09 ± 0.033 | 0.987 ± 0.099 | 0.673 ± 0.043 | 1.09 ± 0.022 | 0.4283 ± 0.0031 | 1.16 ± 0.16 | 0.43 ± 0.027 | 1.28 ± 0.018 | 0.3113 ± 0.0015 | 1.08 ± 0.051
BT20 BREAST | 1.22 ± 0.026 | 1.19 ± 0.11 | 1.19 ± 0.11 | 1.13 ± 0.069 | 1.08 ± 0.069 | 1.12 ± 0.034 | 1.03 ± 0.034 | 0.947 ± 0.081 | 1.21 ± 0.12 | 1.11 ± 0.056 | 1.34 ± 0.025 | 1.28 ± 0.013 | 0.841 ± 0.11 | 0.631 ± 0.12 | 0.614 ± 0.076 | 0.542 ± 0.062
BT549 BREAST | 0.973 ± 0.036 | 1.01 ± 0.15 | 1.06 ± 0.11 | 1.1 ± 0.12 | 1.19 ± 0.071 | 1.22 ± 0.047 | 1.13 ± 0.03 | 1.03 ± 0.069 | 1.02 ± 0.065 | 0.928 ± 0.064 | 0.299 ± 0.035 | 0.232 ± 0.034 | 0.0943 ± 0.0086 | 0.092 ± 0.019 | 0.0593 ± 0.012 | 0.052 ± 0.02
CADOES1 SOFT TISSUE | 0.854 ± 0.09 | 0.853 ± 0.033 | 0.882 ± 0.11 | 0.839 ± 0.11 | 0.783 ± 0.073 | 0.829 ± 0.057 |  | 0.842 ± 0.077 | 0.919 ± 0.029 | 0.865 ± 0.035 | 0.953 ± 0.11 | 0.957 ± 0.14 | 0.764 ± 0.047 | 0.721 ± 0.093 | 0.401 ± 0.014 | 0.291 ± 0.026
CAL51 BREAST | 0.969 ± 0.04 | 0.993 ± 0.069 | 1.05 ± 0.067 | 1.02 ± 0.062 | 1.07 ± 0.045 | 1.07 ± 0.036 | 1.09 ± 0.059 | 1.061 ± 0.0043 | 0.898 ± 0.011 | 0.765 ± 0.047 | 0.281 ± 0.017 | 0.181 ± 0.0083 | 0.0752 ± 0.002 | 0.0562 ± 0.0013 | 0.0417 ± 0.0018 | 0.0317 ± 0.0014
CAL120 BREAST | 0.971 ± 0.033 | 0.964 ± 0.036 | 0.965 ± 0.041 | 0.963 ± 0.017 | 0.988 ± 0.012 | 0.976 ± 0.052 | 0.967 ± 0.035 | 0.958 ± 0.038 | 0.904 ± 0.0095 | 0.599 ± 0.021 | 0.364 ± 0.019 | 0.287 ± 0.0047 | 0.242 ± 0.03 | 0.223 ± 0.0029 | 0.24 ± 0.028 | 0.151 ± 0.018
